From ChEMBL document CHEMBL5131491, “N6-modification of 7-Deazapurine nucleoside analogues as Anti-Trypanosoma cruzi and anti-Leishmania agents: Structure-activity relationship exploration and In vivo evaluation” (Eur J Med Chem, 2022)

How the values were obtained:
[1] = Cytotoxicity against human MRC5 fibroblast cells assessed as reduction in cell viability measured after 3 days by fluorometry; assay type: toxicity, cell-based; conditions: time 3 day
Leishmania infantum = experiment: Antileishmanial activity against intracellular Leishmania infantum MHOM/MA(BE)/67 amastigotes infected in Swiss mouse peritoneal macrophages assessed as parasite growth inhibition incubated for 5 days by giemsa staining based microscopic analysis; assay type: functional, organism-based; conditions: MHOM/MA(BE)/67, Macrophage, 120 h
[2] = Selectivity index, ratio of CC50 for human MRC-5 cells to EC50 for antitrypanosomal activity against intracellular Trypanosoma cruzi Tulahuen amastigotes expressing CL2 beta-galactosidase in human MRC5 cells; assay type: toxicity, cell-based; conditions: read-out: Selectivity Index
Trypanosoma cruzi = experiment: Antitrypanosomal activity against intracellular Trypanosoma cruzi Tulahuen amastigotes expressing CL2 beta-galactosidase in human MRC5 cells assessed as parasite growth inhibition using chlorophenol red beta-D-galactopyranoside as substrate treated for 7 days by spectrophotometry; assay type: functional, organism-based; conditions: MRC5, 168 h
[3] = Cytotoxicity against Swiss mouse peritoneal macrophages assessed as reduction in cell viability measured after 5 days by microscopic analysis; assay type: toxicity, cell-based, Macrophage; conditions: time 5 day
[4] = Selectivity index, ratio of CC50 for Swiss mouse peritoneal macrophages to EC50 for antileishmanial activity against intracellular Leishmania infantum MHOM/MA(BE)/67 amastigotes infected in Swiss mouse peritoneal macrophages; assay type: toxicity, cell-based; conditions: read-out: Selectivity Index

SMILES	CC50 at 72 h [1] [µM]	EC50 (Leishmania infantum) [µM]	selectivity ratio [2]	EC50 (Trypanosoma cruzi) [µM]	CC50 at 120 h [3] [µM]	selectivity ratio [4]
CNc1ncnc2c1ccn2[C@H]1O[C@@H](CO)[C@H](O)[C@@H]1O	> 64	> 64	> 1.98	32.3	> 64	
Nc1ncnc2c1ccn2[C@@H]1O[C@H](CO)C[C@H]1O	> 64	> 64		> 64	> 64	
OC[C@H]1O[C@@H](n2ccc3c(N4CCOCC4)ncnc32)[C@H](O)[C@@H]1O	> 64	> 64		> 64	> 64	
C=CCNc1ncnc2c1ccn2[C@@H]1O[C@H](CO)[C@@H](O)[C@H]1O	8.9	6.01	3.45	2.58	8	1.33
Nc1cnc2c(ccn2[C@@H]2O[C@H](CO)[C@@H](O)[C@H]2O)c1	> 64	> 64	7.9	> 64	> 64	
CCCCCCCCCCCCCCCCOP(=O)([O-])OCC[N+](C)(C)C [MILTEFOSINE]		8.3				
OC[C@H]1O[C@@H](n2ccc3c(NC4CCCC4)ncnc32)[C@H](O)[C@@H]1O	> 64	35	> 4.41	14.5	> 64	> 1.83
OC[C@H]1O[C@@H](n2ccc3c(NC4CCCCC4)ncnc32)[C@H](O)[C@@H]1O	44.6	19.3	5.7	7.82	> 64	> 3.32
OC[C@H]1O[C@@H](n2ccc3c(N4CCC4)ncnc32)[C@H](O)[C@@H]1O	> 64	> 64	> 9.6	6.67	64	
Nc1ccnc2c1ccn2[C@@H]1O[C@H](CO)[C@@H](O)[C@H]1O	17.9	38.9	> 47.1	2.27	> 64	> 1.65
CCN(CC)c1ncnc2c1ccn2[C@@H]1O[C@H](CO)[C@@H](O)[C@H]1O	> 64	> 64		> 64	64	
CCCNc1ncnc2c1ccn2[C@@H]1O[C@H](CO)[C@@H](O)[C@H]1O	> 64	> 64	> 4.51	14.2	> 64	
Nc1ncc2ccn([C@@H]3O[C@H](CO)[C@@H](O)[C@H]3O)c2n1	> 64	> 64	> 1.89	33.8	> 64	
